Results on 5 compounds are retold here after ChEMBL document CHEMBL1201862, “PubChem BioAssay data set” (2004).

The source made the active and inactive calls.

The target of one assay is Oxytocin receptor (Homo sapiens, UniProt P30559). Nature of the assay: Fluorescence-based cell-based high throughput dose response assay for agonists of the Oxytocin Receptor (OXTR). [Related pubchem assays: 2435 (Primary screen (OXTR agonists in singlicate)), 434991 (Counterscreen (V1R agonists in triplicate)), 2482 (Summary (OXTR agonists)), 434963 (Confirmation screen (OXTR agonists in triplicate))]. The format is functional. On the technique in general: A counterscreen serves to expose hits that act by an unwanted route or on another target.
Chain of Oxytocin receptor (P30559 whole entry): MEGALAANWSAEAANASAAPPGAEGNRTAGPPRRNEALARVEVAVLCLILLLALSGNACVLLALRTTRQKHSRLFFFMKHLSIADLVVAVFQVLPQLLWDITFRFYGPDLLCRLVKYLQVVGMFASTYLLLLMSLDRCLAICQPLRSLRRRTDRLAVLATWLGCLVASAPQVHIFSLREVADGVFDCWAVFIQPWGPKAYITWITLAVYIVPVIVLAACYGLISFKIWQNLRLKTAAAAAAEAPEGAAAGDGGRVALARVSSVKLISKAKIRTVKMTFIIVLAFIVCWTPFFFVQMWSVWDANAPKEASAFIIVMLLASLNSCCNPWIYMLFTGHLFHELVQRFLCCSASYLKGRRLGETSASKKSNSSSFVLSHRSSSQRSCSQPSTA

A further assay relates to Vero. The assay can be described thus: cells. The class given is functional. The conditions noted are these: Chlorocebus sabaeus.
The target of the next assay is Vasopressin V1a receptor (Homo sapiens, UniProt P37288). Nature of the assay: Counterscreen for Oxytocin Receptor (OXTR) agonists: Fluorescence-based cell-based high throughput dose response assay to identify agonists of the vasopressin 1 receptor (V1R). [Related pubchem assays: 2435 (Primary screen (OXTR agonists in singlicate)), 434991 (Counterscreen (V1R agonists in triplicate)), 2482 (Summary (OXTR agonists)) …. The format is functional.
Chain of Vasopressin V1a receptor (P37288 whole entry): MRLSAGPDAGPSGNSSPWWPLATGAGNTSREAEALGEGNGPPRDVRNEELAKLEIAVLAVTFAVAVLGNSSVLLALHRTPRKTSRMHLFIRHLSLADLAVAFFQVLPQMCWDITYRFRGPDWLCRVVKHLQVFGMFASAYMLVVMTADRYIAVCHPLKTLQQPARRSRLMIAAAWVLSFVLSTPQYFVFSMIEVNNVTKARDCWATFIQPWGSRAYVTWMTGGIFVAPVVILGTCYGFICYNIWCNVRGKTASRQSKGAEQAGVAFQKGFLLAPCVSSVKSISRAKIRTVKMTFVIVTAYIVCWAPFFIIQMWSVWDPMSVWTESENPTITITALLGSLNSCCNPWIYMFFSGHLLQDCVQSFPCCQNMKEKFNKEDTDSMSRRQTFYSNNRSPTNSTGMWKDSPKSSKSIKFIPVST

In a further assay the target is Wee1-like protein kinase (Homo sapiens, UniProt P30291). Nature of the assay: Dose Response Cell-based Assay for Inhibitors of Wee1 Degradation. [Related pubchem assays: 1410, 1321 ]. The class given is functional.
Chain of Wee1-like protein kinase (P30291 whole entry): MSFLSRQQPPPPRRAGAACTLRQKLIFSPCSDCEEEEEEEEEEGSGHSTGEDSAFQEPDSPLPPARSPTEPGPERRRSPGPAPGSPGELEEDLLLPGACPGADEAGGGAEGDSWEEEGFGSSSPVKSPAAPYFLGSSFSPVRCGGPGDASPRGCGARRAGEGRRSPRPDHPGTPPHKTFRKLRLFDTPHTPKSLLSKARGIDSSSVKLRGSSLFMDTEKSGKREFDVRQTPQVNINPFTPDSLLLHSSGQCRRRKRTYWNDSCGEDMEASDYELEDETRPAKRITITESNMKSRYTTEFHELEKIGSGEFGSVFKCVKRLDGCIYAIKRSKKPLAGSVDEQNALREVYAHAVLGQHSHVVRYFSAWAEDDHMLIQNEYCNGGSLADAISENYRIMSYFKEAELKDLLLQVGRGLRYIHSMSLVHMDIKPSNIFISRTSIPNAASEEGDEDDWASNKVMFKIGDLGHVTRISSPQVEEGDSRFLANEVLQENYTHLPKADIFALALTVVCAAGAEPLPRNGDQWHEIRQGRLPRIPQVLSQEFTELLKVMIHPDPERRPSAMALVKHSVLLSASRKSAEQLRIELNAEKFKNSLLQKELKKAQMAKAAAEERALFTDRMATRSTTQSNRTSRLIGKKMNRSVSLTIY
Assay [1] addresses G2/mitotic-specific cyclin-B1 (Homo sapiens, UniProt P14635). The assay can be described thus: Counterscreen assay for inhibitors of Wee1 degradation: dose response cell-based assay to identify inhibitors of cyclin B degradation. [Related pubchem assays: 1410, 1321 ]. The format is functional.
Assay [2] in a line: HEK-293T viability loss after treatment – luminescence, T-cell screen hits, cytotoxicity control for TCR NF-kB inhibitor project, dose response (AID 489026).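 Further: cells exposed to compound about 14 hours before the viability readout.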 The format is functional, cell-based.
For a further assay, the target named is T1, Insulin-degrading enzyme (Homo sapiens, UniProt P14735).
T1 sequence (P14735 whole entry): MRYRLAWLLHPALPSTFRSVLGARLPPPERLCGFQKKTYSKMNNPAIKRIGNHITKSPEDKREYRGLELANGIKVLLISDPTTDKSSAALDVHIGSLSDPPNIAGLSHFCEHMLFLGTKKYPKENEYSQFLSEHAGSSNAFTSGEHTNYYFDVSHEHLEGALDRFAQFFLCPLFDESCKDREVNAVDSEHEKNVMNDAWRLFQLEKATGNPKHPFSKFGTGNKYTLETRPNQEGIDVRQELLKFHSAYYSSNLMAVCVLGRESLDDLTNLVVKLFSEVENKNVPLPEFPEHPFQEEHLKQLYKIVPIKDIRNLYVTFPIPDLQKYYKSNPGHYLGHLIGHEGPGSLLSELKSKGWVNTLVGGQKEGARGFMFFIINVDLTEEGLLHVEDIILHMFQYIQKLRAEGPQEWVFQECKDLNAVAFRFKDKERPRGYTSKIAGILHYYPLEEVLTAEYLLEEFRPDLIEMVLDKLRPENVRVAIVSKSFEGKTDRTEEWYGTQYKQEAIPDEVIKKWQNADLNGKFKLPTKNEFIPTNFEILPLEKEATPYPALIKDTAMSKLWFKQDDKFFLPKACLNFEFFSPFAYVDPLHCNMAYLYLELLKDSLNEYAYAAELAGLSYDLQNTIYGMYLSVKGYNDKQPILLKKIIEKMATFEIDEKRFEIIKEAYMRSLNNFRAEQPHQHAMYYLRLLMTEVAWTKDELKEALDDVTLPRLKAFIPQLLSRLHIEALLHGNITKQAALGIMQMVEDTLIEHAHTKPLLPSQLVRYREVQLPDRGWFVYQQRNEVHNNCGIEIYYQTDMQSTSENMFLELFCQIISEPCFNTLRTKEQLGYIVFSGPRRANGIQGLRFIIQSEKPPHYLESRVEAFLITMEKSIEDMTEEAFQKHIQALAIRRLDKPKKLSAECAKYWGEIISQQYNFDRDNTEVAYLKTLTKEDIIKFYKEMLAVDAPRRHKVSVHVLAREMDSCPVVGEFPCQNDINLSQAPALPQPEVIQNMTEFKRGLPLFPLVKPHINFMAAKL
The assay can be described thus: Dose Response: Fluorescence polarization-based cell-based high throughput dose response assay for inhibitors of insulin-degrading enzyme (IDE). [Related pubchem assays: 434962 (Primary screen (IDE inhibitors in singlicate)), 449730 (Counterscreen (Cytotoxicity in triplicate)), 435028 (Confirmation (IDE inhibitors in triplicate)), 434984 (Summary …. The format is functional. Background: Polarisation of emitted light reports the rotation of a fluorescent probe.

Assay [3] in a line: Counterscreen for IDE inhibitors: Luminescence-based cell-based high throughput dose response assay to identify compounds that are cytotoxic to HEK cells. [Related pubchem assays: 434962 (Primary screen (IDE inhibitors in singlicate)), 449730 (Counterscreen (Cytotoxicity in triplicate)), 435028 (Confirmation (IDE inhibitors in triplicate)) …. The class given is functional. The conditions noted are these: HEK293.

The target of assay [4] is Mothers against decapentaplegic homolog 3 (Homo sapiens, UniProt P84022). The assay can be described thus: blockers of Smad3 complex formation in lysate – cell lysate, secondary confirmation, chemiluminescent ELISA, HEK293 lysate, dose response (AID 1058). The class given is functional. For orientation: An ELISA detects its analyte on a solid surface through an enzyme-linked reagent.
Chain of Mothers against decapentaplegic homolog 3 (P84022 whole entry): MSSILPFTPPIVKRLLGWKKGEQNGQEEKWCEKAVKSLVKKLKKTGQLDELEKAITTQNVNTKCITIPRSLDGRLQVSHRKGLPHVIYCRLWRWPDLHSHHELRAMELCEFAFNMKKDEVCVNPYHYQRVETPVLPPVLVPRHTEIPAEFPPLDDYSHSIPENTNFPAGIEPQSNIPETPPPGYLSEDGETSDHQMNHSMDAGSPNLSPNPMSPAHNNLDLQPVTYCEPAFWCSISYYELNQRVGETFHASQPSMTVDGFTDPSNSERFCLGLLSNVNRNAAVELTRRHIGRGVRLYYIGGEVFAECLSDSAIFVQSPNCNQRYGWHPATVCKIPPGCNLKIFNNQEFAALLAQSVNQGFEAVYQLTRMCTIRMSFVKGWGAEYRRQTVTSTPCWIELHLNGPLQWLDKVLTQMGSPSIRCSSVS

Assay [5] has as its target T2, Neuropeptide Y receptor type 1 (Homo sapiens, UniProt P25929).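 Further: HEK293 cells with a CNG channel challenged with NPY then isoproterenol; potency as antagonist that reverses NPY suppression of cAMP signal.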
T2 sequence (P25929 whole entry): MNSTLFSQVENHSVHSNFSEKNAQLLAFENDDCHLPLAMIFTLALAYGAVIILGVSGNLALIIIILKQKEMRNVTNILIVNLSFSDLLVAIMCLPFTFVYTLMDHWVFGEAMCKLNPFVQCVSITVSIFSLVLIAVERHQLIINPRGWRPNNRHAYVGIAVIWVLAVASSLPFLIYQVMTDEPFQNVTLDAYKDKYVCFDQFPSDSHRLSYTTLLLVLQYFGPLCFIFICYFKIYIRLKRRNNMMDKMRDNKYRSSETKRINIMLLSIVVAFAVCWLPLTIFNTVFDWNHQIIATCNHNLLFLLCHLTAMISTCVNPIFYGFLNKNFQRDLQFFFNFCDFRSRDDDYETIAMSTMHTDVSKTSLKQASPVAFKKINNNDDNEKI
The format is functional.

The target in assay [6] is T3, Neuropeptide Y receptor type 2 (Homo sapiens, UniProt P49146).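 Further: HEK293 cells expressing the receptor and a CNG channel; stimulus was NPY near EC95 followed by isoproterenol to raise cAMP; antagonist potency measured as restoring cAMP signal that NPY suppresses.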
T3 sequence (P49146 whole entry): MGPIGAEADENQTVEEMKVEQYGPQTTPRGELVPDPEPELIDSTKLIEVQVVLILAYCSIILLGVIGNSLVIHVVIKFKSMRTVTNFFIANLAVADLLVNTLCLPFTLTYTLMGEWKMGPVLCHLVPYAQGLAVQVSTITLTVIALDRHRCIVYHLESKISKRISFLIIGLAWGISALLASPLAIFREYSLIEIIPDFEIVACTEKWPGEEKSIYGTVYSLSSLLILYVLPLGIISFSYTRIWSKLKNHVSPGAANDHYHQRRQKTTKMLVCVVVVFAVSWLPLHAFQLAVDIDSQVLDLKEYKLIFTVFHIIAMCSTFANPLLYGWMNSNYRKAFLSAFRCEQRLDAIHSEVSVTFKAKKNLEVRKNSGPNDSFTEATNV
The format is functional, cell-based.

Chain of G2/mitotic-specific cyclin-B1 (P14635 whole entry): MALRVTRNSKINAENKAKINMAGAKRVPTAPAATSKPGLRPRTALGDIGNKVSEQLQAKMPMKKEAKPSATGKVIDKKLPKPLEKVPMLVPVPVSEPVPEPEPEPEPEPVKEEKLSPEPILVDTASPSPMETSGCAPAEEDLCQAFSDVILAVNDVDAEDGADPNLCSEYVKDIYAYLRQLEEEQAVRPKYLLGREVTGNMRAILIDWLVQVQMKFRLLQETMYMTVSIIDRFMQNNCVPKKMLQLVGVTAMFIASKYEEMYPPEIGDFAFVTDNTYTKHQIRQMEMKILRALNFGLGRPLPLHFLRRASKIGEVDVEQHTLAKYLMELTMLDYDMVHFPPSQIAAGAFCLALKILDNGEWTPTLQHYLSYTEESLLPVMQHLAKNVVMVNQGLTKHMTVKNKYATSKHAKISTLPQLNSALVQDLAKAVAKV

For orientation: EC50 means the concentration that produces a half-maximal response. Read a low EC50 as an effect from little substance. In general, CC50 refers to the concentration giving 50% cytotoxicity. For `Cc1ccc(NS(=O)(=O)c2ccc(C(=O)NCC(c3ccco3)N3CCCCC3)cc2)cc1` (stereo unspecified), the half-maximal effective concentration (EC50) on Oxytocin receptor and at Vasopressin V1a receptor was > 29.9 µM (not active) each time. In addition, the CC50 with Vero was > 25 µM (active).
As usually defined, the IC50 is the concentration that inhibits the measured activity by half. Regarding `Cc1csc2sc(-c3ccnc(SCC(=O)NCc4ccccc4)n3)c(C)c12`, the EC50 (on Wee1-like protein kinase; in [1]) was > 49.7 µM (not active) each time. Besides, in [2], the IC50 was > 80 µM (inactive).
For the compound `Cc1c(NC(=O)/C(C#N)=C/c2ccc(-c3ccc(Cl)cc3)o2)c(=O)n(-c2ccccc2)n1C`, the IC50 was 2.7 µM (active) on Insulin-degrading enzyme and 11.1 µM (not active) in [3].
With `CN(C)c1ccc(C(c2cc3c(cc2O)OCO3)N2CCOCC2)cc1` (stereo unspecified), the IC50 in [4] is > 40 µM (not active).
Take `O=C(N/N=C/c1ccco1)c1ccccc1OCc1ccc(Br)cc1`: the half-inhibitory concentration (IC50) is 5.34 µM (active) in [5] and 9.08 µM (active) in assay [6].
